Assay results as given in ChEMBL document CHEMBL3627633, “Synthesis of potent urease inhibitors based on disulfide scaffold and their molecular docking studies” (Bioorg Med Chem, 2015).
Activity calls are given as the source filed them. No cut-off for these calls is given here.

Experiments:
[1] = target: Carbonic anhydrase (Homo sapiens) (UniProt P00918+P43166+P00915+P07451+P23280+O43570+Q9ULX7+Q16790+P22748+Q8N1Q1+Q9Y2D0+P35218); assay: Inhibition of carbonic anhydrase (unknown origin); assay type: protein assay
[2] = target: Cholinesterase (Equus caballus) (UniProt P81908); assay: Inhibition of equine serum butyrylcholinesterase using […] as substrate preincubated for 15 mins followed by substrate addition measured every 1 min by Ellman's method
[3] = Cytotoxicity against mouse 3T3L1 cells assessed as cell viability at 1 to 20 ug/ml after 48 hrs by MTT assay; assay type: cell-based; details: 3t3-l1, 48 h
Urease = Urease (Canavalia ensiformis, UniProt P07374); assay: Inhibition of jack bean urease using urea as substrate assessed as ammonia production incubated for 15 mins by indophenol method
Serpentes = assay: Inhibition of snake venom NPP1 using bis(p-nitrophenyl)phosphate as substrate assessed as p-nitrophenol release preincubated for 30 mins by spectrophotometry
[4] = Cytotoxicity against Wistar rat CC1 cells assessed as cell viability at 1 to 20 ug/ml after 48 hrs by MTT assay; assay type: cell-based; details: cc-1, 48 h

Sequence of Urease (P07374 whole entry): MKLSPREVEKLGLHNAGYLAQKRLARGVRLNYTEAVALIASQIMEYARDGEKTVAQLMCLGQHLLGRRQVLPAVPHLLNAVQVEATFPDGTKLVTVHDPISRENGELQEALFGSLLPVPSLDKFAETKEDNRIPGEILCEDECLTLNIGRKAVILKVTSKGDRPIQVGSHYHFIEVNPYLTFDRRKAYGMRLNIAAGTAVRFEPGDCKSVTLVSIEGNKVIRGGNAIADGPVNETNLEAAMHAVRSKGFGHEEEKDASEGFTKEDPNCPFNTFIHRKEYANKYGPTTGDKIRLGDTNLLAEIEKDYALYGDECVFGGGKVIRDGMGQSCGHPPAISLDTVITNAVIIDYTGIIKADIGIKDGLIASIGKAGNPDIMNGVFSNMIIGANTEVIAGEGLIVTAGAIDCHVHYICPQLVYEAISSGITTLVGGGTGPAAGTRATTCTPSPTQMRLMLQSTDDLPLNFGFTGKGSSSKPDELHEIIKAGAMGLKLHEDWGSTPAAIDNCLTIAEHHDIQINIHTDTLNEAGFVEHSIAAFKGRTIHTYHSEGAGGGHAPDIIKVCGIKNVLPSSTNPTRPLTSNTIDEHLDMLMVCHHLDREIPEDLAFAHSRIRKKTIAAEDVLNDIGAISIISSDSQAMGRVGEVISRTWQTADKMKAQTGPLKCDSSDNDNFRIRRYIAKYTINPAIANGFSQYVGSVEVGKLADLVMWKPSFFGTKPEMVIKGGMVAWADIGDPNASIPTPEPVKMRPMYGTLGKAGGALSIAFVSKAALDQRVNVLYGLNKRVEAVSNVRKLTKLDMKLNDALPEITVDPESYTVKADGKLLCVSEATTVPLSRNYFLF
Sequence of Cholinesterase (Equus caballus) (P81908 whole entry): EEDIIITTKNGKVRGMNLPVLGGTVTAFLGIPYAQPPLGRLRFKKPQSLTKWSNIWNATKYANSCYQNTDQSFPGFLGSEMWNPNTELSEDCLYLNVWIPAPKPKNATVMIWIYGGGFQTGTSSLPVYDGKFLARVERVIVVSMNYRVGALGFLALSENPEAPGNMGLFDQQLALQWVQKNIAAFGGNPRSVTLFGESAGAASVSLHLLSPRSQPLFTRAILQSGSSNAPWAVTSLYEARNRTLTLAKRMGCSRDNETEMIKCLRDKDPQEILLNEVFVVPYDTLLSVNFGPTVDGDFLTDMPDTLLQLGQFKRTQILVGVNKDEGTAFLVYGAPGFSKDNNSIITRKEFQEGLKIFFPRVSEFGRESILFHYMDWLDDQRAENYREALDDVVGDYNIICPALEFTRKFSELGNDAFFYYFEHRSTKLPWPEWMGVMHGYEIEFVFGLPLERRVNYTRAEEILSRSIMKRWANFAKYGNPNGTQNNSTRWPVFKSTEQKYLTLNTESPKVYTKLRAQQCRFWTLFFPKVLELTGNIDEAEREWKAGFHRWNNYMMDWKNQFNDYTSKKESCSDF

| SMILES | inhibition [1] | inhibition [2] | Activity [3] | IC50 (Urease) | inhibition (Serpentes) | Activity [4] |
| --- | --- | --- | --- | --- | --- | --- |
| O=[N+]([O-])c1ccc(NC(=S)Nc2ccccc2SSc2ccccc2NC(=S)Nc2ccc([N+](=O)[O-])cc2)cc1 | inactive | inactive | Non-toxic | 6.4 µM | inactive | Non-toxic |
| S=C(Nc1ccc(Cl)cc1)Nc1ccccc1SSc1ccccc1NC(=S)Nc1ccc(Cl)cc1 | inactive | inactive | Non-toxic | 1.6 µM | inactive | Non-toxic |
| Cc1ccccc1NC(=S)Nc1ccccc1SSc1ccccc1NC(=S)Nc1ccccc1C | inactive | inactive | Non-toxic | 1.1 µM | inactive | Non-toxic |
| Cc1ccc(NC(=S)Nc2ccccc2SSc2ccccc2NC(=S)Nc2ccc(C)cc2)cc1 | inactive | inactive | Non-toxic | 1.4 µM | inactive | Non-toxic |
| Cc1cccc(NC(=S)Nc2ccccc2SSc2ccccc2NC(=S)Nc2cccc(C)c2)c1 | inactive | inactive | Non-toxic | 3.7 µM | inactive | Non-toxic |
| S=C(Nc1ccccc1)Nc1ccccc1SSc1ccccc1NC(=S)Nc1ccccc1 | inactive | inactive | Non-toxic | 15.1 µM | inactive | Non-toxic |
| NC(N)=S [THIOUREA] |  |  |  | 19.5 µM |  |  |
| Fc1cccc(NC(=S)Nc2ccccc2SSc2ccccc2NC(=S)Nc2cccc(F)c2)c1 | inactive | inactive | Non-toxic | 1.5 µM | inactive | Non-toxic |
| Fc1ccccc1NC(=S)Nc1ccccc1SSc1ccccc1NC(=S)Nc1ccccc1F | inactive | inactive | Non-toxic | 0.7 µM | inactive | Non-toxic |
| S=C(Nc1cccc(Br)c1)Nc1ccccc1SSc1ccccc1NC(=S)Nc1cccc(Br)c1 | inactive | inactive | Non-toxic | 10.3 µM | inactive | Non-toxic |
| O=[N+]([O-])c1cccc(NC(=S)Nc2ccccc2SSc2ccccc2NC(=S)Nc2cccc([N+](=O)[O-])c2)c1 | inactive | inactive | Non-toxic | 12.3 µM | inactive | Non-toxic |
| S=C(Nc1ccccc1SSc1ccccc1NC(=S)NC12CC3CC(CC(C3)C1)C2)NC12CC3CC(CC(C3)C1)C2 | inactive | inactive | Non-toxic | 17.6 µM | inactive | Non-toxic |
| S=C(Nc1ccccc1Br)Nc1ccccc1SSc1ccccc1NC(=S)Nc1ccccc1Br | inactive | inactive | Non-toxic | 18.6 µM | inactive | Non-toxic |
| COc1ccc(NC(=S)Nc2ccccc2SSc2ccccc2NC(=S)Nc2ccc(OC)cc2)cc1 | inactive | inactive | Non-toxic | 4.2 µM | inactive | Non-toxic |
| COc1ccccc1NC(=S)Nc1ccccc1SSc1ccccc1NC(=S)Nc1ccccc1OC | inactive | inactive | Non-toxic | 1.7 µM | inactive | Non-toxic |
| S=C(Nc1ccc(Br)cc1)Nc1ccccc1SSc1ccccc1NC(=S)Nc1ccc(Br)cc1 | inactive | inactive | Non-toxic | 4.3 µM | inactive | Non-toxic |
| FC(F)(F)c1ccc(NC(=S)Nc2ccccc2SSc2ccccc2NC(=S)Nc2ccc(C(F)(F)F)cc2)cc1 | inactive | inactive | Non-toxic | 1.5 µM | inactive | Non-toxic |
| COc1cccc(NC(=S)Nc2ccccc2SSc2ccccc2NC(=S)Nc2cccc(OC)c2)c1 | inactive | inactive | Non-toxic | 14.6 µM | inactive | Non-toxic |
| S=C(Nc1ccc(Cl)c(Cl)c1)Nc1ccccc1SSc1ccccc1NC(=S)Nc1ccc(Cl)c(Cl)c1 | inactive | inactive | Non-toxic | 3.2 µM | inactive | Non-toxic |
| S=C(Nc1ccccc1Cl)Nc1ccccc1SSc1ccccc1NC(=S)Nc1ccccc1Cl | inactive | inactive | Non-toxic | 3.4 µM | inactive | Non-toxic |
| Fc1ccc(NC(=S)Nc2ccccc2SSc2ccccc2NC(=S)Nc2ccc(F)cc2)cc1 | inactive | inactive | Non-toxic | 0.4 µM | inactive | Non-toxic |
